Structures can show the parent of a compound that is named as a salt.

In data set [1] the test system is human skin microvascular endothelial cells. Description: Effect on morphology and growth of endothelial cell cultures. The class given is cell-based. Here is the method: Skin endothelial cells in psoriasis are intimately involved in initiating the inflammatory response. Agents which affect both the binding of T lymphocytes and the hyperproliferation of endothelial cells would be expected to have a major effect in controlling the skin lesions.
In this study, human skin microvascular endothelial cells were isolated both from foreskins removed at circumcision and from skin obtained following a facial cosmetic correction. The endothelial cells were grown in a modified Iscove's medium, and while in the growth phase, the effect of varying concentrations of spirogermanium was studied on both the morphology and the growth of the endothelial cell cultures. Final concentrations of spirogermanium in the growth medium were 1,000, 500, 100, 50, 10, 1.0 and 0.125 μg/ml.

Data set [2] concerns Human foreskin keratinocytes. Description: Mitotic activity of epidermal keratinocytes: inhibition of 3H-TdR incorporation into DNA. The class given is cell-based. On the procedure: The mitotic activity of epidermal keratinocytes is one of the most obvious histological features of the psoriatic lesion. Many cytotoxic drugs used to treat the disease are believed to function by direct inhibition of keratinocyte replication.
Human foreskin keratinocytes were cultured in KGM. When the dishes were approximately 50% covered by cells, SG was added to give final concentrations of 5×10^-5 to 5×10^-9 M. After 3 days, the cells were pulsed with ^3 H-TdR for 4 hours, and incorporation into DNA assayed by conventional means. The inhibition of incorporation in 2 experiments was as follows: […]

Data set [3] is described as follows: In vivo evaluation of efficacy in treating psoriasis. As to conditions: moderate to severe psoriasis; documented (cited) procedures. On the procedure: Compounds encompassed by structural formula (I) are evaluated in vivo for their efficacy in treating psoriasis. The methods of the following references are used in the evaluation: Berardesca et al., "Non-invasive Evaluation of Topical Calcipotriol versus Clobetasol in the Treatment of Psoriasis," Acta Derm Venereol (Stokh) 74:302-304 (1994); Elias et al., "A Controlled Trial of Topical Propylthiouracil in the Treatment of Patients with Psoriasis," J. Amer. Acad. Dermatol. 31(3):455-458; and Highton et al., "Calcipotriene Ointment 0.005% for Psoriasis: A Safety and Efficacy Study," J. Amer. Acad. Dermatol. 32(1):67-72 (1995).

For data set [4] the following is noted: hydrochloride salt, cited from earlier work.

On to `C[CH2][Ge]1([CH2]C)[CH2]CC2(CCN(CCCN(C)C)C2)C[CH2]1` [SG], for which, in data set [1] (0.125 μg/ml, after 1 week), the cell death result was “cell death was observed after 1 week”. Further, the endothelial cell morphology result was “vacuolization was observed before desquamation and ultimate cell death” in data set [1] (10 μg/ml); “immediately rounded up and detached from the dish surface” in data set [1] (highest concentrations). For the same compound, the “inhibition of DNA synthesis in keratinocytes (in words)” value in data set [2] is recorded as “very potent inhibitor of DNA synthesis in keratinocytes”. In addition, the “efficacy in treating psoriasis” value in data set [3] was “effective for treating moderate to severe psoriasis”.
As to `C[CH2][Ge]1([CH2]C)[CH2]CC2(CCN(CCCN(C)C)C2)C[CH2]1` [spirogermanium HCl], the “solubility in 95% ethanol” value in data set [4] (95% ethanol) was “freely soluble”. Besides, the solubility in water entry in data set [4] (water) was “freely soluble”.

Source of the values: patent US5843936A, “Topical administration of azaspiranes to prevent or treat skin conditions associated with hyperproliferation of keratinocytes” (priority 1996, dated 1998).
